Assay results reported in US12606552B2, “Bifunctional compound, preparation method therefor, and use thereof” (SUZHOU KINTOR PHARMACEUTICALS, INC., priority 2020, dated 2026).

Test system: androgenetic alopecia model in C57BL/6J mice
Experiment: Hair regeneration effects on androgenic alopecia C57 mouse model (DHT-induced)
Type: in vivo, C57BL/6N mice
Settings: AVER n = 6, score 0-5
From the text: Activity Assay Example 8: Hair Regeneration Effects of Compounds on Androgenic Alopecia C57 Mouse Model
The purpose of this study was to compare the effect of the compounds prepared by the present invention as AR protein degraders on hair regrowth in an androgenetic alopecia model in C57BL/6J mice by transdermal application route of administration, and to provide data to support subsequent clinical trials.
2. Experimental Principle
Name of test compound I: dihydrotestosterone DHT; name of test compound II: compound A46 of the present invention; name of test compound III: minoxidil.
4. Experimental animals: strain: C57BL/6N mice; age: 6-7 weeks; gender: male; number of animals: 70 (10 for later use); rearing environment: specific pathogen-free (SPF).
70 mice were deeply anesthetized, and the hair on the back of the mice was removed with an animal shaver, then the depilatory cream (Veet https://item.jd.com/6291245.html) was smeared evenly on the surface of the mice skin, and left 7-10 minutes. Then the hair was gently scraped off with a hair removal scraper against the direction of the hair, and finally the residual hair removal cream on the skin surface was fully washed with water to avoid burning the mice skin.
This experiment was divided into 6 groups, and the DHT administration started on the day of hair removal, A46 is administered on day 2 after hair removal and is counted as day 1 (the day of hair removal is counted as day 0).
5.3 Test Compound Preparation Method
5.4 Observation and Measurement Indicators • 1) Body weight/g: From the first day of administration, body weight was weighed and recorded twice a week. • 2) Hair regeneration (anagen) score (0 points: no darkening of skin color in all areas; 1 point: darkening of gray skin color areas; 2 points: visible short hair; 3 points: thin hair; 4 points: thick hair; 5 points: full hair growth).
All mice were photographed on day 1 after hair removal, and then photographed and scored daily from day 4 until the end of the experiment. • 3) At the end of the experiment, skin and blood collection operations were performed as needed. 5.5 Criteria for Drug Withdrawal and Experiment Termination
Data are presented as average±standard error (AVE±SEM). One-way multi-level analysis of variance was used for statistics. The comparison between each drug group and the model group was performed by Stundent's t-test or rank sum test, and the p value was calculated. p<0.05 means there is a significant difference between the two groups, p<0.01 means there is a extremely significant difference between the two groups.

Cc1ncsc1-c1ccc(CNC(=O)[C@@H]2C[C@@H](O)CN2C(=O)[C@@H](NC(=O)COCCCCOc2ccc(-c3ccc(N4C(=S)N(c5ccc(C#N)c(C(F)(F)F)c5F)C(=O)C4(C)C)cn3)cc2)C(C)(C)C)cc1 [Compound A46]
Hair regeneration score (0.5% skin smear BID + DHT 30 mpk, 0 day): 0.00 | Hair regeneration score (0.5% skin smear BID + DHT 30 mpk, 3 days): 0.00 | Hair regeneration score (0.5% skin smear BID + DHT 30 mpk, 5 days): 0.00 | Hair regeneration score (0.5% skin smear BID + DHT 30 mpk, 7 days): 0.00 | Hair regeneration score (0.5% skin smear BID + DHT 30 mpk, 10 days): 0.33 | Hair regeneration score (0.5% skin smear BID + DHT 30 mpk, 12 days): 0.50 | Hair regeneration score (0.5% skin smear BID + DHT 30 mpk, 14 days): 1.00 | Hair regeneration score (0.5% skin smear BID + DHT 30 mpk, 17 days): 1.67 | Hair regeneration score (1% skin smear BID + DHT 30 mpk, 0 day): 0.00 | Hair regeneration score (1% skin smear BID + DHT 30 mpk, 3 days): 0.00 | Hair regeneration score (1% skin smear BID + DHT 30 mpk, 5 days): 0.00 | Hair regeneration score (1% skin smear BID + DHT 30 mpk, 7 days): 0.00 | Hair regeneration score (1% skin smear BID + DHT 30 mpk, 10 days): 0.33 | Hair regeneration score (1% skin smear BID + DHT 30 mpk, 12 days): 0.83 | Hair regeneration score (1% skin smear BID + DHT 30 mpk, 14 days): 1.50 | Hair regeneration score (1% skin smear BID + DHT 30 mpk, 17 days): 2.00 | Hair regeneration score (3% skin smear BID + DHT 30 mpk, 0 day): 0.00 | Hair regeneration score (3% skin smear BID + DHT 30 mpk, 3 days): 0.00 | Hair regeneration score (3% skin smear BID + DHT 30 mpk, 5 days): 0.00 | Hair regeneration score (3% skin smear BID + DHT 30 mpk, 7 days): 0.00 | Hair regeneration score (3% skin smear BID + DHT 30 mpk, 10 days): 0.50 | Hair regeneration score (3% skin smear BID + DHT 30 mpk, 12 days): 1.17 | Hair regeneration score (3% skin smear BID + DHT 30 mpk, 14 days): 1.83 | Hair regeneration score (3% skin smear BID + DHT 30 mpk, 17 days): 2.83
